According to US10100050B2 (CHIESI FARMACEUTICI S.P.A., priority 2015, dated 2018):
Values joined by “and” are separate entries in the source; they are usually repeats but may differ in a detail not shown here. Identical values can stand only once. Counter-ions that a name gives are not always drawn.

Experiments:
[1] = tested on: Peripheral Blood Mononuclear Cells (PBMCs); assay: LPS-stimulated PBMC TNFα release assay; type: cell-based; conditions: IC50 classes; human PBMC, LPS 10 ng/ml, 18 h; read-out: LPS-stimulated PBMC TNFα release inhibition
Experimental: 1-10 nM ‘+’; • <1 nM ‘++’ LPS-Stimulated PBMC TNFα Release Assay
Peripheral Blood Mononuclear Cells (PBMCs) were isolated from healthy human volunteer blood using a standard density gradient centrifugation technique. Citrated blood was placed onto Histopaque™ and centrifuged. The PBMCs were removed from the density gradient interface and washed in phosphate buffered saline (PBS). The PBMCs were suspended in RPMI 1640 medium (without serum), dispensed into a 96-well plate and incubated at 37° C. for 3 h in a humidified incubator. After incubation, the medium was replaced (with medium containing 1% foetal bovine serum) and the plate incubated at 37° C., for 1 h, in the presence of test compound or the appropriate vehicle. LPS (10 ng/ml), or an appropriate vehicle control, was then added to the cells and the plate returned to the incubator for 18 h. Cell-free supernatants were removed and assayed for TNFα levels using MSD plates on the Sector Imager 6000 (MesoScale).
A dose response curve to each test compound was performed and the effect of compound in each experiment was expressed as a percentage inhibition of the control TNFα release. Dose response curves were plotted and compound potency (IC50) was determined. Compounds were tested in at least three separate experiments.

BEAS-2B cells = assay: TNFα-stimulated BEAS-2B IL-8 release assay; type: cell-based; conditions: Homo sapiens, IC50 classes, TNF-α 10 ng/ml, 18 h, read-out: TNFα-stimulated BEAS-2B IL-8 release inhibition
Experimental: TNFα-Stimulated BEAS-2B IL-8 Release Assay
Human bronchial epithelial cell line BEAS-2B was purchased from Sigma (St. Louis, Mo.). BEAS-2B cells were cultured in Bronchial Epithelial cell Growth Medium (BEGM), prepared by supplementing Bronchial Epithelial Basal Medium with SingleQuotes™ (Lonza, Switzerland), which contains retinoic acid, epidermal growth factor, epinephrine, transferrin, triiodothyronin, insulin, hydrocortisone, antimicrobial agents, and bovine pituitary extract. In addition, BEGM medium was supplemented with 2 mM glutamine, 100 U penicillin and 100 μg/ml streptomycin (Life Technologies), in an atmosphere of 95% air and 5% CO2 at 37° C.
BEAS-2B were seeded in 48-well plates at the density of 3×10^4 cells per well, grown to approximately 80-90% confluence. Cells were pre-incubated with p38 inhibitors for 1 hour and then stimulated with TNF-α (10 ng/ml) for 18 h at 37° C. with 5% CO2. Subsequently, supernatants were collected and used for measuring IL-8 levels using a paired antibody quantitative ELISA kit purchased from Life Technologies (detection limit: […]). All the treatments were performed at least in quadruplicate.
A concentration-response curve to each test compound was performed and the effect of compound in each experiment was expressed as a percentage inhibition of the control IL-8 release. Compound potency (IC50) was calculated by the analysis of the sigmoidal dose-response curve (variable slope) elaborated by Graph Pad PRISM4 program.

p38alpha = target: T1, p38alpha (Homo sapiens, UniProt Q16539); assay: P38alpha enzyme inhibition assay (Alphascreen kinase activity assay); type: biochemical; conditions: IC50 classes; 2 hours preincubation at 25° C., 250 μM ATP; read-out: p38α inhibition
T1 construct: purchased Invitrogen PV3304
Experimental: P38alpha Enzyme Inhibition Assay
The inhibitory activity of compounds was determined using an Alphascreen® (Perkin Elmer) based kinase activity assay. Kinase reactions consisted of 25 mM HEPES pH 7.5, 10 mM MgCl2, 100 μM Na3VO4, 2 mM DTT, 0.05 mg/ml Tween […] (Invitrogen, PV3304), 1% DMSO and 0.3 μg/ml ATF-2 fusion protein (New England Biolabs, 9224). Compounds were incubated under these conditions for 2 hours, at 25° C., prior to the initiation of the kinase activity by the addition of the 250 μM ATP. Reaction volumes were 20 uL. After 1 hr at 25° C. reactions were stopped by the adding 10 uL of 25 mM HEPES pH 7.5 containing 62.5 mM EDTA, 0.05% Triton X-100, 10% BSA and 0.83 ng/uL anti-phospho-ATF2 antibody (Abcam, ab28812). Detection was performed by measuring luminescence following the addition of Alphascreen Donor beads (Perkin Elmer 6765300) and Protein A Alphascreen Acceptor beads (Perkin Elmer 6760137), both at a final concentration of 20 ug/ml. IC50 values were determined from concentration-response curves.

T1 sequence (Q16539 whole entry): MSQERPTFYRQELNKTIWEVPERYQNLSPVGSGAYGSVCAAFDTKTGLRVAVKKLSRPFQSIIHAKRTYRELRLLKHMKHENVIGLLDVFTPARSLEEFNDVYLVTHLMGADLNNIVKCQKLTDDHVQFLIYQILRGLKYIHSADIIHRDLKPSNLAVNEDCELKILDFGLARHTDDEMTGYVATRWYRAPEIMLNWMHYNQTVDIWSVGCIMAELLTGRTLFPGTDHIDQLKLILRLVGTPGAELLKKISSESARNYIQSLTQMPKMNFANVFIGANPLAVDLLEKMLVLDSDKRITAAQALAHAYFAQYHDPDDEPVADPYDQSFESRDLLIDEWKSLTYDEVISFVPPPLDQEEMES

Row | Structure (SMILES) | IC50 [1] [nM] | IC50 (BEAS-2B cells) [nM] | IC50 (p38alpha)
1 | COc1c(CO)cc(C(C)(C)C)cc1NC(=O)N[C@H]1CC[C@@H](Oc2ccc3nnc([C@]4(C)CCCN4C)n3c2)c2ccccc21 [Example 3, 1-(5-tert-Butyl-3-hydroxymethyl-2-methoxy-phenyl)-3-{(1S,4R)-4-[-3-((S)-1,2-dimethyl-pyrrolidin-2-yl)-[1,2,4]triazolo[4,3-a]pyridin-6-yloxy]-1,2,3,4-tetrahydro-naphthalen-1-yl}-urea hydrochloride salt] | < 1 | < 0.3 | < 1 nM
2 | COc1c(CO)cc(C(C)(C)C)cc1NC(=O)N[C@H]1CC[C@@H](Oc2ccc3nnc(C(C)(C)N(C)C)n3c2)c2ccccc21 [Example 4, 1-(5-tert-Butyl-3-hydroxymethyl-2-methoxy-phenyl)-3-{(1S,4R)-4-[3-(1-dimethylamino-1-methyl-ethyl)-[1,2,4]triazolo[4,3-a]pyridin-6-yloxy]-1,2,3,4-tetrahydro-naphthalen-1-yl}-urea hydrochloride salt] | < 1 | < 0.3 | < 1 nM
3 | COc1c(CO)cc(C(C)(C)C)cc1NC(=O)N[C@H]1CC[C@@H](Oc2ccc3nnc([C@@H]4CCCCN4C)n3c2)c2ccccc21 [Example 5, 1-(5-tert-Butyl-3-hydroxymethyl-2-methoxy-phenyl)-3-{(1S,4R)-4-[3-((S)-1-methyl-piperidin-2-yl)-[1,2,4]triazolo[4,3-a]pyridin-6-yloxy]-1,2,3,4-tetrahydro-naphthalen-1-yl}-urea] | < 1 | < 0.3 | 1 to 10 nM
4 | COc1c(CO)cc(C(C)(C)C)cc1NC(=O)N[C@H]1CC[C@@H](Oc2ccc3nnc([C@@H]4CCCN4C(C)C)n3c2)c2ccccc21 [Example 6, 1-(5-tert-Butyl-3-hydroxymethyl-2-methoxy-phenyl)-3-{(1S,4R)-4-[3-((S)-1-isopropyl-pyrrolidin-2-yl)-[1,2,4]triazolo[4,3-a]pyridin-6-yloxy]-1,2,3,4-tetrahydro-naphthalen-1-yl}-urea] | < 1 | < 0.3 | 1 to 10 nM
5 | CNC(=O)c1cc(C(C)(C)C)cc(NC(=O)N[C@H]2CC[C@@H](Oc3ccc4nnc([C@@H]5CCCN5C)n4c3)c3ccccc32)c1OC [Example 7, 5-tert-Butyl-2-methoxy-N-methyl-3-(3-{(1S,4R)-4-[3-((S)-1-methyl-pyrrolidin-2-yl)-[1,2,4]triazolo[4,3-a]pyridin-6-yloxy]-1,2,3,4-tetrahydro-naphthalen-1-yl}-ureido)-benzamide hydrochloride salt] | < 1 | 0.3 to 1 | < 1 nM
6 | COc1c(NC(C)=O)cc(C(C)(C)C)cc1NC(=O)N[C@H]1CC[C@@H](Oc2ccc3nnc([C@]4(C)CCCN4C)n3c2)c2ccccc21 [Example 8, N-[5-tert-Butyl-3-(3-{(1S,4R)-4-[3-((S)-1,2-dimethyl-pyrrolidin-2-yl)-[1,2,4]triazolo[4,3-a]pyridin-6-yloxy]-1,2,3,4-tetrahydro-naphthalen-1-yl}-ureido)-2-methoxy-phenyl]-acetamide] | < 1 | < 0.3 | 1 to 10 nM
7 | COc1c(NC(C)=O)cc(C(C)(C)C)cc1NC(=O)N[C@H]1CC[C@@H](Oc2ccc3nnc([C@@H]4CCCN4C(C)C)n3c2)c2ccccc21 [Example 9, N-[5-tert-Butyl-3-(3-{(1S,4R)-4-[3-((S)-1-isopropyl-pyrrolidin-2-yl)-[1,2,4]triazolo[4,3-a]pyridin-6-yloxy]-1,2,3,4-tetrahydro-naphthalen-1-yl}-ureido)-2-methoxy-phenyl]-acetamide] | < 1 | < 0.3 | 1 to 10 nM
8 | COc1c(NC(C)=O)cc(C(C)(C)C)cc1NC(=O)N[C@H]1CC[C@@H](Oc2ccc3nnc(C(C)(C)N(C)C)n3c2)c2ccccc21 [Example 10, N-[5-tert-Butyl-3-(3-{(1S,4R)-4-[3-(1-dimethylamino-1-methyl-ethyl)-[1,2,4]triazolo[4,3-a]pyridin-6-yloxy]-1,2,3,4-tetrahydro-naphthalen-1-yl}-ureido)-2-methoxy-phenyl]-acetamide] | < 1 | < 0.3 | 1 to 10 nM
9 | COc1c(NC(C)=O)cc(C(C)(C)C)cc1NC(=O)N[C@H]1CC[C@@H](Oc2ccc3nnc([C@@H]4CCCN4C)n3c2)c2ccccc21 [Example 11, N-[5-tert-Butyl-2-methoxy-3-(3-{(1S,4R)-4-[3-((S)-1-methyl-pyrrolidin-2-yl)-[1,2,4]triazolo[4,3-a]pyridin-6-yloxy]-1,2,3,4-tetrahydro-naphthalen-1-yl}-ureido)-phenyl]-acetamide] | < 1 | > 1 | < 1 nM
10 | COc1c(NC(C)=O)cc(C(C)(C)C)cc1NC(=O)N[C@H]1CC[C@@H](Oc2ccc3nnc([C@@H]4CCCCN4C)n3c2)c2ccccc21 [Example 12, N-[5-tert-Butyl-2-methoxy-3-(3-{(1S,4R)-4-[3-((S)-1-methyl-piperidin-2-yl)-[1,2,4]triazolo[4,3-a]pyridin-6-yloxy]-1,2,3,4-tetrahydro-naphthalen-1-yl}-ureido)-phenyl]-acetamide] | 1 to 5 | 0.3 to 1 | < 1 nM
11 | CCS(=O)(=O)Nc1cc(C(C)(C)C)cc(NC(=O)N[C@H]2CC[C@@H](Oc3ccc4nnc(C(C)(C)N(C)C)n4c3)c3ccccc32)c1OC [Example 13, Ethanesulfonic acid [5-tert-butyl-3-(3-{(1S,4R)-4-[3(1-dimethylamino-1-methyl-ethyl)-[1,2,4]triazolo[4,3-a]pyridin-6-yloxy]-1,2,3,4-tetrahydro-naphthalen-1-yl}-ureido)-2-methoxy-phenyl]-amide hydrochloride salt] | < 1 | < 0.3 | 1 to 10 nM
12 | COc1c(NC(=O)N[C@H]2CC[C@@H](Oc3ccc4nnc(C(C)(C)N(C)C)n4c3)c3ccccc32)cc(C(C)(C)C)cc1NS(=O)(=O)C1CC1 [Example 14, Cyclopropanesulfonic acid [5-tert-butyl-3-(3-{(1S,4R)-4-[3(1-dimethylamino-1-methyl-ethyl)-[1,2,4]triazolo[4,3-a]pyridin-6-yloxy]-1,2,3,4-tetrahydro-naphthalen-1-yl}-ureido)-2-methoxy-phenyl]-amide partial formate salt] | < 1 | < 0.3 | 1 to 10 nM
13 | COCCS(=O)(=O)Nc1cc(C(C)(C)C)cc(NC(=O)N[C@H]2CC[C@@H](Oc3ccc4nnc(C(C)(C)N(C)C)n4c3)c3ccccc32)c1OC [Example 15, 2-Methoxy-ethanesulfonic acid [5-tert-butyl-3-(3-{(1S,4R)-4-[3(1-dimethylamino-1-methyl-ethyl)-[1,2,4]triazolo[4,3-a]pyridin-6-yloxy]-1,2,3,4-tetrahydro-naphthalen-1-yl}-ureido)-2-methoxy-phenyl]-amide hydrochloride salt] | < 1 | < 0.3 | 1 to 10 nM
14 | COc1c(NC(=O)N[C@H]2CC[C@@H](Oc3ccc4nnc(C(C)(C)N(C)C)n4c3)c3ccccc32)cc(C(C)(C)C)cc1NS(=O)(=O)CC(C)C [Example 16, 2-Methyl-propane-1-sulfonic acid [5-tert-butyl-3-(3-{(1S,4R)-4-[3-(1-dimethylamino-1-methyl-ethyl)-[1,2,4]triazolo[4,3-a]pyridin-6-yloxy]-1,2,3,4-tetrahydro-naphthalen-1-yl}-ureido)-2-methoxy-phenyl]-amide hydrochloride salt] | 1 to 5 | 0.3 to 1 | 1 to 10 nM and < 1 nM
